“And” between values parts separate entries of the source, which are not always exact repeats. Equal values may be shown once. Numbers after ± are expanded uncertainties.
Details: Liquid

| Structure (SMILES) | vapor or sublimation pressure (273.15 K) | vapor or sublimation pressure (283.15 K) | vapor or sublimation pressure (293.15 K) | vapor or sublimation pressure (303.15 K) | vapor or sublimation pressure (313.15 K) | vapor or sublimation pressure (323.15 K) | vapor or sublimation pressure (268.15 K) | vapor or sublimation pressure (278.15 K) | vapor or sublimation pressure (288.15 K) | vapor or sublimation pressure (298.15 K) | vapor or sublimation pressure (308.15 K) | vapor or sublimation pressure (318.15 K) |
| --- | --- | --- | --- | --- | --- | --- | --- | --- | --- | --- | --- | --- |
| FCC(F)(F)F [1,1,1,2-tetrafluoroethane] | 294.2 ± 2.5 kPa | 416.9 ± 3.3 kPa | 571.9 ± 4.3 kPa | 770.4 ± 5.6 kPa | 1012.8 ± 7.1 kPa | 1313.8 ± 9.1 kPa | – | – | – | – | – | – |
| CC(F)(F)F [1,1,1-trifluoroethane] | – | – | – | – | – | – | 529.2 ± 4 kPa | 722.4 ± 5.3 kPa | 962 ± 6.8 kPa | 1261.8 ± 8.7 kPa | 1619.8 ± 11 kPa | 2055.2 ± 14 kPa |
| CCC [propane] | 474.6 ± 3.7 kPa | 636.6 ± 4.7 kPa | 836.2 ± 6 kPa | 1078.4 ± 7.6 kPa | 1369 ± 12 kPa and 1363.8 ± 9.4 kPa | 1709.2 ± 12 kPa | 407.9 ± 3.3 kPa | 549.4 ± 4.2 kPa | 735 ± 5.4 kPa | 954.8 ± 6.8 kPa | 1213 ± 8.4 kPa | 1530.8 ± 10 kPa |

Reference: the NIST ThermoML archive (doi:10.1016/j.fluid.2006.02.016)
